Results from ChEMBL document CHEMBL5291721, “A preclinical secondary pharmacology resource illuminates target-adverse drug reaction associations of marketed drugs” (Nat Commun, 2023).

What was measured:
[1] = target: T1, 5-hydroxytryptamine receptor 1A (Homo sapiens, UniProt P08908)
T1 sequence (P08908 whole entry): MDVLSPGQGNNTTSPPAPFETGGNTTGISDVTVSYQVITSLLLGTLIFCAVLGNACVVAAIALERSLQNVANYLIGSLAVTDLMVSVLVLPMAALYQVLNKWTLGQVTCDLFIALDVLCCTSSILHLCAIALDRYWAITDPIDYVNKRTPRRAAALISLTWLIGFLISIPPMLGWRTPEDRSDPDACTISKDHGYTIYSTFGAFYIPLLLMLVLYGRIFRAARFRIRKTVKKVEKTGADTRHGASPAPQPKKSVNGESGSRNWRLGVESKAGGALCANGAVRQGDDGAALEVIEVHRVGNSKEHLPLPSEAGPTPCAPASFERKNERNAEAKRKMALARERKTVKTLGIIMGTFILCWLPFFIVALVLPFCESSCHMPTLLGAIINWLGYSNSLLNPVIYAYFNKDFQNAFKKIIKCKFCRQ

[2] = target: Prothrombin (Homo sapiens, UniProt P00734); assay type: functional
[3] = target: Histamine H3 receptor (Homo sapiens, UniProt Q9Y5N1)
[4] = target: T2, Amine oxidase [flavin-containing] A (Homo sapiens, UniProt P21397); assay type: functional
T2 sequence (P21397 whole entry): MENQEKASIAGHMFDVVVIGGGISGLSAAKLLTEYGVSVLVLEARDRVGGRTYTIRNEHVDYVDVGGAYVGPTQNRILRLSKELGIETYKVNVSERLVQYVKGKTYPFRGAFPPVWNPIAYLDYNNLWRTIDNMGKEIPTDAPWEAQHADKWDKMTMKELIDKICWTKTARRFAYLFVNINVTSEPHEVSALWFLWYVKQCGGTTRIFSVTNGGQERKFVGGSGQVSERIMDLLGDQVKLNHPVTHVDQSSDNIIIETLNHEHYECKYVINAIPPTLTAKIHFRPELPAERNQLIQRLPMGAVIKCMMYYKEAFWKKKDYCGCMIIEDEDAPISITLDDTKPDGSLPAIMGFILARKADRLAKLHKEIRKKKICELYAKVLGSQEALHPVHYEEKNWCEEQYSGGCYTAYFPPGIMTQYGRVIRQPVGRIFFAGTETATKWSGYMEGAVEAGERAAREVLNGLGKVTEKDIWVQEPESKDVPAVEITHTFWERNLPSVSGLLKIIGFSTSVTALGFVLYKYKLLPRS

[5] = target: T3, Thromboxane A2 receptor (Homo sapiens, UniProt P21731); assay type: functional, cell-based
T3 sequence (P21731 whole entry): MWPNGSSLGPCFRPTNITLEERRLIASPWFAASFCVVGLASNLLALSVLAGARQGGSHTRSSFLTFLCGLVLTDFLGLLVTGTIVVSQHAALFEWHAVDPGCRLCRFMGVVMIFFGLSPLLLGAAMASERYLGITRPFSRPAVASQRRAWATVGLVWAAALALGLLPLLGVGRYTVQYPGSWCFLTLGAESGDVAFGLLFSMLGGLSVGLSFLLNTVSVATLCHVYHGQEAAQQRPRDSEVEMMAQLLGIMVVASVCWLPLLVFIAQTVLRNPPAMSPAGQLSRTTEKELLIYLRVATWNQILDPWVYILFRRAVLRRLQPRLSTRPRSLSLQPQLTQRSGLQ

[6] = target: 3',5'-cyclic-AMP phosphodiesterase 4A (Homo sapiens, UniProt P27815); assay type: functional
[7] = target: T4, Muscarinic acetylcholine receptor M2 (Homo sapiens, UniProt P08172)
T4 sequence (P08172 whole entry): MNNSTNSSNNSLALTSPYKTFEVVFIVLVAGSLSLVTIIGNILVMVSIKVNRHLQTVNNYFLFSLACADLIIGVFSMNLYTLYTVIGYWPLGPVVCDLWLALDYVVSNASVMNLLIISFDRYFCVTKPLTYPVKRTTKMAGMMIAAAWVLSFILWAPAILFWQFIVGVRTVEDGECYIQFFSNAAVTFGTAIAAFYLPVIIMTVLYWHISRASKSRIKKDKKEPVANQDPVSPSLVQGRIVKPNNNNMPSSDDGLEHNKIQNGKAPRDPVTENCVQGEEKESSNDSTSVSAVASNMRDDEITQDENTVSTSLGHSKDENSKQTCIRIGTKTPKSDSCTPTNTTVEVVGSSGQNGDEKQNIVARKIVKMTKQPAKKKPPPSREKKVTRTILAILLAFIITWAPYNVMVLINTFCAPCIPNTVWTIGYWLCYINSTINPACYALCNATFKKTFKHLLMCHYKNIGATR

[8] = target: 5-hydroxytryptamine receptor 2B (Homo sapiens, UniProt P41595); assay type: functional, cell-based
[9] = target: Voltage-gated inwardly rectifying potassium channel KCNH2 (Homo sapiens, UniProt Q12809); assay type: functional
[10] = target: T3, Thromboxane A2 receptor; assay type: functional, cell-based; remark: listed apart in the source
[11] = target: Sodium-dependent dopamine transporter (Homo sapiens, UniProt Q01959)
[12] = target: Acetylcholinesterase (Homo sapiens, UniProt P22303); assay type: functional
[13] = target: Vascular endothelial growth factor receptor 2 (Homo sapiens, UniProt P35968); assay type: functional
[14] = target: cGMP-inhibited 3',5'-cyclic phosphodiesterase 3A (Homo sapiens, UniProt Q14432); assay type: functional
[15] = target: T5, Alpha-2A adrenergic receptor (Homo sapiens, UniProt P08913)
T5 sequence (P08913 whole entry): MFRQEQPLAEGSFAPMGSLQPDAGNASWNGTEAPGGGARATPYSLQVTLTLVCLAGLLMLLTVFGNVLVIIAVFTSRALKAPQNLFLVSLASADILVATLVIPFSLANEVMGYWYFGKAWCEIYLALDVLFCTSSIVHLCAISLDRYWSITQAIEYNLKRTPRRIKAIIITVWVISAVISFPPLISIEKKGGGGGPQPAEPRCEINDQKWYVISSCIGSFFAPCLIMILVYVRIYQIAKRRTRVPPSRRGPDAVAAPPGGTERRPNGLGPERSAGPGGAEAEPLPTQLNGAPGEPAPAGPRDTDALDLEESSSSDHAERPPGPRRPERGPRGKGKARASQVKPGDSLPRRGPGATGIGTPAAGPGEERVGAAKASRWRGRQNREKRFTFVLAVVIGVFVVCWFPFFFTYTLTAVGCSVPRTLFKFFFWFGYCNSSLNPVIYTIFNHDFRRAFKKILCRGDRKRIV
Also: assay procedure not described here.

Vascular endothelial growth factor receptor 2, sequence (P35968 whole entry): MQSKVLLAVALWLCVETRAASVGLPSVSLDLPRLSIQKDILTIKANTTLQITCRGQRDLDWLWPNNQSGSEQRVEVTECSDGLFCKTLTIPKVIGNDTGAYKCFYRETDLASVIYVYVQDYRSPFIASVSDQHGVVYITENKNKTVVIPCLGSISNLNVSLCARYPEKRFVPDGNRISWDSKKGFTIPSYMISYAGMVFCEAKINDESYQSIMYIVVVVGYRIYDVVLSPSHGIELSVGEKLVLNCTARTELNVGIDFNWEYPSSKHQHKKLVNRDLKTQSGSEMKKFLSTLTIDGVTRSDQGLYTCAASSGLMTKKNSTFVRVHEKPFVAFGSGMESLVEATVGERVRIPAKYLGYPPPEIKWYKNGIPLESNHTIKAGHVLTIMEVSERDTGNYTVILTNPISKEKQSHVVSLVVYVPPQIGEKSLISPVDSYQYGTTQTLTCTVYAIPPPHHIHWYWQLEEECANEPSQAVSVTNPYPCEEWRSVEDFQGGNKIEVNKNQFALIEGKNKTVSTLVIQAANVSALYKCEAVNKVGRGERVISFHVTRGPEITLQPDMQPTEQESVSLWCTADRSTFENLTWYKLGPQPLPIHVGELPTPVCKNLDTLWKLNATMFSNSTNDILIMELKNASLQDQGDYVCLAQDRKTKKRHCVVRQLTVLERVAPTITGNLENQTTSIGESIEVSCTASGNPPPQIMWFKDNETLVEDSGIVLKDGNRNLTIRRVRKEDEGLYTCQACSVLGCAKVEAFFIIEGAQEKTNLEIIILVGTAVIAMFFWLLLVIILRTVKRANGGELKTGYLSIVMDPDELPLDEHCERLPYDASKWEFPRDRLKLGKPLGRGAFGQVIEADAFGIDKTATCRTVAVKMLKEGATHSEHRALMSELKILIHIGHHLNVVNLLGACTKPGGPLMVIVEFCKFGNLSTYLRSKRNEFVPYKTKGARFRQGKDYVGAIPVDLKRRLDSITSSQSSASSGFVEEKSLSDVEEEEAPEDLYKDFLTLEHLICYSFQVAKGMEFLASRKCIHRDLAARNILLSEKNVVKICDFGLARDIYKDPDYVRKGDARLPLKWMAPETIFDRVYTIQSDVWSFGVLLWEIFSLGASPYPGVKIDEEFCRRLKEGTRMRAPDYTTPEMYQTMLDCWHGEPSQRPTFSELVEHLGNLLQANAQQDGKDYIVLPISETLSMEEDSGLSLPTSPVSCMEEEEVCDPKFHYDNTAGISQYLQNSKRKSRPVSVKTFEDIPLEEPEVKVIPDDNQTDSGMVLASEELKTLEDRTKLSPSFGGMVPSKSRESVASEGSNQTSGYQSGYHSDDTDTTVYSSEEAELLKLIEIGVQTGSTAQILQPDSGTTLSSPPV
cGMP-inhibited 3',5'-cyclic phosphodiesterase 3A, sequence (Q14432 whole entry): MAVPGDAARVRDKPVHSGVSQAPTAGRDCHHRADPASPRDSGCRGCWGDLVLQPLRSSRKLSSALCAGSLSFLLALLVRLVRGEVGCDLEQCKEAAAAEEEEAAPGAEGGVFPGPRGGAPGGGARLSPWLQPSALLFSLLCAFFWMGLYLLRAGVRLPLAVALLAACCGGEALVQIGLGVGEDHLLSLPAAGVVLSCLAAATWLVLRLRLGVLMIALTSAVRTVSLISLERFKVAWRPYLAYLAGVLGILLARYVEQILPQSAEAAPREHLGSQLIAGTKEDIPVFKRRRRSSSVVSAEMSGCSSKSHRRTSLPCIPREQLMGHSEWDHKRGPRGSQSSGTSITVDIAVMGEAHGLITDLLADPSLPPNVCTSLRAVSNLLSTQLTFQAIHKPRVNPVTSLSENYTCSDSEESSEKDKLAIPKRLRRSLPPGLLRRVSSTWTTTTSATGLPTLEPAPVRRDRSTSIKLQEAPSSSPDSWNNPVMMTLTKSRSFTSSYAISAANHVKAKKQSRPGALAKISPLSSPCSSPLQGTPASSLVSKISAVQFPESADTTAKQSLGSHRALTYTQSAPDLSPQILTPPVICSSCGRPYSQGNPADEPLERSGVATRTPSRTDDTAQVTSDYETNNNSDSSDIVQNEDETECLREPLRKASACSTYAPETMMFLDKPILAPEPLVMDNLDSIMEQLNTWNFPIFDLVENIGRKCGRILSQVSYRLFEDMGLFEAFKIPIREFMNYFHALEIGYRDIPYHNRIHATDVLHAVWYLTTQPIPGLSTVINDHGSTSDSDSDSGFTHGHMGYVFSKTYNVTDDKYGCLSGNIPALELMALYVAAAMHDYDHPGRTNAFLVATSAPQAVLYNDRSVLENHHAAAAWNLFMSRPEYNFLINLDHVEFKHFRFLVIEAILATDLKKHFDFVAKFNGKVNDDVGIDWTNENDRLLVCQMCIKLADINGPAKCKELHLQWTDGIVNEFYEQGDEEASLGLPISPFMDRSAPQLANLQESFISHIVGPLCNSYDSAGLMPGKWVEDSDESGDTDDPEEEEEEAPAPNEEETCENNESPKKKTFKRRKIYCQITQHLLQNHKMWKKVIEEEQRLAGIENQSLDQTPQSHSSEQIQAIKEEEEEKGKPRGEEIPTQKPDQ
Voltage-gated inwardly rectifying potassium channel KCNH2, sequence (Q12809 whole entry): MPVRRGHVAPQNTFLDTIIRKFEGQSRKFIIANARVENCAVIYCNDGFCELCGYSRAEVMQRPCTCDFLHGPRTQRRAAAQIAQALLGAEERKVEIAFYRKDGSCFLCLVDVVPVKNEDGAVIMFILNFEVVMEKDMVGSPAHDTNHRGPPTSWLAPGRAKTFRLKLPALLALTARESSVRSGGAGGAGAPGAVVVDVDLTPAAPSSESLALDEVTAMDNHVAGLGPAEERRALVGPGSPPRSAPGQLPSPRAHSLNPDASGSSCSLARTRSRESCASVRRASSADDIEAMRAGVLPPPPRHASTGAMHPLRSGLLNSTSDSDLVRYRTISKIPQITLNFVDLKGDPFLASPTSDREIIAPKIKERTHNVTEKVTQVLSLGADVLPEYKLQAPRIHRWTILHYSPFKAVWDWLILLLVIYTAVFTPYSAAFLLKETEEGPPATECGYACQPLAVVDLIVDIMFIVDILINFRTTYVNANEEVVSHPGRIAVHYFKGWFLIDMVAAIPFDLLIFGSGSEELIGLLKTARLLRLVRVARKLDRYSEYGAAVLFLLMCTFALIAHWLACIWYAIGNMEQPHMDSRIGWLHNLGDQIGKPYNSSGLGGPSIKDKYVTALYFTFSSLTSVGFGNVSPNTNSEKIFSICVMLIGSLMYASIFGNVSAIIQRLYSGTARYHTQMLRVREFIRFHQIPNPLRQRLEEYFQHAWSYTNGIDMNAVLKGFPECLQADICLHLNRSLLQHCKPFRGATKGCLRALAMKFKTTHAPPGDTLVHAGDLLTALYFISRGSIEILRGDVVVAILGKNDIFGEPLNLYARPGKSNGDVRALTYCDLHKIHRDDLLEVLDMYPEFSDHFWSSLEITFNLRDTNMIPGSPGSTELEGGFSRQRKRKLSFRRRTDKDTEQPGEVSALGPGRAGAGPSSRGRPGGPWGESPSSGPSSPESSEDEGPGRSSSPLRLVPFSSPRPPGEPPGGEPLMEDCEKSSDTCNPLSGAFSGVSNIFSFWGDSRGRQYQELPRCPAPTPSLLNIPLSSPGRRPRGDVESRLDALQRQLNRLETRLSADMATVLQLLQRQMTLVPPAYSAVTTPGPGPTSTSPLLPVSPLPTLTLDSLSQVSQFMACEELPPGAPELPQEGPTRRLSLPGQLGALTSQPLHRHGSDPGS
5-hydroxytryptamine receptor 2B, sequence (P41595 whole entry): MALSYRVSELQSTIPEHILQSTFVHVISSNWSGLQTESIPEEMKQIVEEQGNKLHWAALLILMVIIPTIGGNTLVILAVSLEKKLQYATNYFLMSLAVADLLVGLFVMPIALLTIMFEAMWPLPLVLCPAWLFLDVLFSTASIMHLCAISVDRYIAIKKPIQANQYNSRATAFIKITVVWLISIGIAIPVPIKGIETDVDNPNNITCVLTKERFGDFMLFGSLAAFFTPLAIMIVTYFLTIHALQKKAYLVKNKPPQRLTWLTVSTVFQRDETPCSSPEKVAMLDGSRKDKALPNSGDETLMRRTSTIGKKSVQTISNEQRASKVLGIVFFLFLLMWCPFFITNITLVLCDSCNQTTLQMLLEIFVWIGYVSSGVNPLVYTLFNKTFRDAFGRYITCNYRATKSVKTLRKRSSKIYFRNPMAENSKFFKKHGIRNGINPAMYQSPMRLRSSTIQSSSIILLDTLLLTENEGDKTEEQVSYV
Histamine H3 receptor, sequence (Q9Y5N1 whole entry): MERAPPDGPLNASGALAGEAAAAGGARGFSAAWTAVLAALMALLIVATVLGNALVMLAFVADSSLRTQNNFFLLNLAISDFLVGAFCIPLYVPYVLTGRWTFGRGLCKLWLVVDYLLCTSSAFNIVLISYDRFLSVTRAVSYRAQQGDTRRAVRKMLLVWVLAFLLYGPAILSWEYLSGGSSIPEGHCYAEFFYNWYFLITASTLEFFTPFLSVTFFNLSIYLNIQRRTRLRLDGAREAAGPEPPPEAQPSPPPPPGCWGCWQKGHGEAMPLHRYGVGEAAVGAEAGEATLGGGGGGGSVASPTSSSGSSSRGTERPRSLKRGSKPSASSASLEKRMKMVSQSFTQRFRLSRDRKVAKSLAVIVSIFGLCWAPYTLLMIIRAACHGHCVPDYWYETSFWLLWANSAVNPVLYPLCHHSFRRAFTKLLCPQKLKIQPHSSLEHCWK

SMILES | AC50 [1] | AC50 [2] | AC50 [3] | AC50 [4] | AC50 [5] | AC50 [6] | AC50 [7] | AC50 [8] | AC50 [9] | AC50 [10] | AC50 [11] | AC50 [12] | AC50 [13] | AC50 [14] | AC50 [15]
C[C@H](CCC(=O)O)[C@H]1CC[C@H]2[C@@H]3[C@H](O)C[C@@H]4C[C@H](O)CC[C@]4(C)[C@H]3C[C@H](O)[C@]12C [CHOLIC ACID] | > 30 µM | > 30 µM | > 30 µM | > 30 µM | > 30 µM | > 30 µM | > 30 µM | > 30 µM | > 30 µM | > 30 µM | > 30 µM | > 30 µM | > 30 µM | 13.8 µM | > 30 µM
Cc1ncc2c(c1O)COC2c1ccc(Cl)cc1 (stereo not given) [CICLETANINE] | > 30 µM | > 30 µM | > 30 µM | > 30 µM | > 30 µM | > 30 µM | > 30 µM | > 30 µM | > 30 µM | > 30 µM | > 30 µM | > 30 µM | > 30 µM | > 30 µM | > 30 µM
N#Cc1ccc(Oc2ccc3c(c2)COB3O)cc1 [CRISABOROLE] | > 30 µM | > 30 µM | > 30 µM | > 30 µM | > 30 µM | 0.337 µM | > 30 µM | > 30 µM | > 30 µM | > 30 µM | > 30 µM | > 30 µM | > 30 µM | 14.7 µM | > 30 µM
CC(=O)O[C@H]1Cc2ccccc2N(C(N)=O)c2ccccc21 [ESLICARBAZEPINE ACETATE] | > 30 µM | > 30 µM | > 30 µM | > 30 µM | > 30 µM | > 30 µM | > 30 µM | > 30 µM | > 30 µM | > 30 µM | > 30 µM | > 30 µM | > 30 µM | > 30 µM | > 30 µM
Cc1ccc(S(=O)(=O)NC(=O)NC2CCCCC2)cc1 [GLYCYCLAMIDE] | > 30 µM | > 30 µM | > 30 µM | > 30 µM | > 30 µM | > 30 µM | > 30 µM | > 30 µM | > 30 µM | > 30 µM | > 30 µM | > 30 µM | > 30 µM | > 30 µM | > 30 µM
CN1CCCN(C(c2ccccc2)c2ccc(Cl)cc2)CC1 (stereo not given) [HOMOCHLORCYCLIZINE] | 13.7 µM | > 30 µM | > 30 µM | > 30 µM | 11.8 µM | > 30 µM | 0.149 µM | > 30 µM | 0.81 µM | > 3 µM | 0.229 µM | > 30 µM | > 30 µM | > 30 µM | 1.35 µM
